The values below come from patent US20260297101A1 (AbbVie Inc., priority 2015, published 2026).

The nature of data set [1]: Multiple-dose escalation pharmacokinetics in healthy subjects (Study 2-Part 1). As to conditions: 24 mg BID IR, Day 14, from Cmax to Ctrough ratio, harmonic mean ± pseudo-SD, 20160 min.
Experimental: Both evaluations followed randomized, double-blind, placebo-controlled designs.
Study drug was administered approximately 30 minutes after a standard breakfast (in the morning) or a snack (in the evening). […] Subjects were confined to the study site and supervised for approximately 18 days.
Samples quantified below the LLOQ were reported as zero.
Renal clearance (CLr) was calculated as Au, 0-12/AUC0-12 at steady state.
Statistical analyses were performed using SAS software (Version 9.3; SAS institute Inc., Cary, NC, USA).
For data set [2] the following is noted: QD ER tablet.
Experimental: (§1) Part 1 was a multiple-dose, open-label, multiple-cohort study. Two sequential multiple-ascending dose levels (Low Dose and High Dose levels) were evaluated in the 12 to <18 years age group (Group 1), and one dose level (Low Dose) was evaluated in the two younger age groups (Group 2: 6 to <12 years, and Group 3: 2 to <6 years). Low Dose and High Dose cohorts in age group 1 enrolled 9 subjects each.
(§2) The study enrolled at least 10 subjects below 30 kg. Recruitment of subjects was conducted through a staggered approach based on age. […] Part 3 was an additional safety cohort. […] Part 3 was open to age groups in which Part 1 enrollment was completed. […] Doses were adjusted during the study for any of the body weight categories after review of results from the subjects who completed Study Part 1.
(§3) In Part 1, the dose was administered according to three body weight categories. Subjects were categorized based on age group, and the dose administered for seven consecutive days will be based on three different body weight categories per dose level shown in Table 29.
(§4) Patients (N=51) diagnosed with pcJIA were enrolled into one of four groups in an open-label, multiple-dose study (Group 1, 12 to <18 years, low dose; Group 2, 12 to <18 years, high dose; Group 3, 6 to <12 years, low dose; Group 4, 2 to <6 years, low dose). […]
The nature of another data set: clinical. As to conditions: human, in vivo, po, functional half-life (t1/2), BID IR oral solution.
Data set [3] can be described thus: Solubility of upadacitinib in different aqueous media at 37 °C. As to conditions: low pH.

Experimental for clinical: as §1, §2, §3, §4

Regarding `CC[C@@H]1CN(C(=O)NCC(F)(F)F)C[C@@H]1c1cnc2cnc3[nH]ccc3n12` [Compound 1, (3S,4R)-3-ethyl-4-(3H-imidazo[1,2-a]pyrrolo[2,3-e]pyrazin-8-yl)-N-(2,2,2-trifluoroethyl) pyrrolidine-1-carboxamide], in data set [1], the “t1/2F (functional half-life)” value stood at 3.3 ± 0.4 h.
With `CC[C@@H]1CN(C(=O)NCC(F)(F)F)C[C@@H]1c1cnc2cnc3[nH]ccc3n12` [upadacitinib, (3S,4R)-3-ETHYL-4-(3H-IMIDAZO[1,2-a]PYRROLO[2,3-e]-PYRAZIN-8-YL)-N-(2,2,2-TRIFLUOROETHYL)PYRROLIDINE-1-CARBOXAMIDE], the “time to maximum upadacitinib concentration (Tmax)” value in data set [2] is “approximately 3 hours”. The compound further had a half-life in “clinical” of around 2 h. In addition, the solubility result in data set [3] was “good solubility at low pH”.

By half-life is commonly meant the time in which the quantity being followed falls by half. A low value points to rapid decline.
